Reference: patent US6242428A, “Nucleoside analogs and uses in treating Plasmodium falciparum infection” (Unisearch Limited, priority 1998, dated 2001)
“Also recorded” adds a separate entry of the source. Where two headings read alike, the source gives them in different places.

Experiments:
[1] = test system: P. falciparum strain D6 (chloroquin non-resistant); assay: U.S. Army Antimalarial Test Program in vitro screen, strain D6; assay type: cell-based, Plasmodium falciparum; conditions: 15 dimers, D6 and W2 stated together
From the text: (§1) Fifteen L-nucleoside dimers (L-101, L-103, L-103A, L-107, L-110, L-111, L-112, L-114, L-117, L-120, L-122, L-124, L-125, L-133 & L-138) from Lipitek's library were submitted for in vitro screen to the U.S. Army Antimalarial Test Program (for the structures of the compounds, see FIG. 7). The compounds have been tested for their activity against two P. falciparum strains: D6 (chloroquin non-resistant) and W2 (chloroquin resistant).

[2] = test system: P. falciparum; assay: In vitro toxicity against P. falciparum in culture (radiolabelled hypoxanthine incorporation / lactate dehydrogenase assay); assay type: cell-based, Plasmodium falciparum, FCQ27; conditions: for toxicity against P. falciparum, in words: statement in the transport and metabolism study
Description: P. falciparum, FCQ27, was maintained in culture using the techniques described by Trager & Jensen (W. Traqer and J. B. Jensen, Science, 193 673-675 (1976)). Cultures containing 2% hematocrit suspensions of parasitized human type O^+ erythrocytes in RPMI 1640 medium, supplemented with 25 mM HEPES-KOH, pH 7.2, 25 mM NaHCO3 and 10% human type O^+ serum (v/v) are maintained in modular incubator chambers at 37° C. in a gas mixture of 5% O2, 5% CO2 and 90% N2. The isolate of P. falciparum used in these experiments was FCQ27, routinely maintained in synchronized or asynchronous in vitro cultures at low hematocrit.
The potential toxicity of nucleoside analogues against P. falciparum in culture was tested in microtitre plates over the range of drug concentrations for 24 hours. The procedures for monitoring parasite viability is well established (A. M. Gero, H. V. Scott, W. J. O'Sullivan and R. I. Christopherson, Mol. Biochem. Parasitol. 34, 87-89 (1989)) and is based on radiolabelled hypoxanthine or isoleucine incorporation. The incorporation of [G-^3 H]hypoxanthine into the nucleic acids of P. falciparum was used to assess the viability of the parasite in vitro. Microculture plates were prepared with each well containing 225 μl of a 2% hematocrit culture of asynchronous parasited erythrocytes (1% parasitized cells). Each plate, containing varying concentrations of the drug to be studied (up to 200 μM final concentration for initial screen), was incubated for 24 h at 37° C. in a gas mixture of 5% O2, 5% CO2 and 90% N2, at which point [G-^3 H] hypoxanthine was added to each well and the incubation continued under identical conditions for a further 18-20 h. The control infected cells (i.e. without drug), routinely reached a parasitemia of 6-8% before harvesting. Expediency was aided by 96-well plate counter using lactate dehydrogenase for the drug susceptibility assay (L. K. Basco, F. Marguet, M. T. Makler and J. Lebbras, Exp. Parasitol. 80, 260-271 (1995); M. T. Makler and D. J. Hinrichs; Am. J. Trop. Med. Hyg. 48, 205-210 (1993)). This assay gave the identical results to the hypoxanthine technique. In addition, for each experiment, microscopic counting of Giemsa stained thin slides was used as a control.
The biological screen involved evaluation of the compounds against the protozoan P. falciparum in in vitro culture. The range of drug concentrations was used independently by two assays. One, radiolabelled hypoxanthine incorporation into the nucleic acid of P. falciparum, and the other, more expedient assay, a 96-well plate susceptibility assay using lactate dehydrogenase. Both assays gave identical results. In addition, microscopic counting of Giemsa stained thin slides was used as a control. Examples of experimental curves are attached as Appendix 2. The biological tests were done at several concentrations. The highest concentration was 200 μM, the compounds were considered active at concentrations less than 40 μM.

[3] = test system: P. falciparum strain W2 (chloroquin resistant); assay: U.S. Army Antimalarial Test Program in vitro screen, strain W2; assay type: cell-based, Plasmodium falciparum; conditions: 15 dimers, D6 and W2 stated together
From the text: as §1

[4] = Solubility remark in the in vitro testing; conditions: Tables 1 and 6
[5] = test system: P. falciparum infected erythrocytes (trophozoites); assay type: in vitro ADME, human erythrocytes infected with Plasmodium falciparum
Description: (§2) The metabolism of the L-nucleoside conjugates was studied by HPLC analysis. The primary aim was to determine their ability to be catabolized by parasite purine salvage enzymes. Some effect on the purine metabolic pools was also observed.
(§3) For each HPLC determination 200 μL of packed cells of 80-90% trophozoite infected cells were used. These were isolated from in vitro cultures by synchronization of the parasites in in vitro cultures using sterile D-sorbitol (L. Lambros and J. P. Vanderberg, Parasitol. 65, 418-420 (1979)) followed by separation of the trophozoites from non infected erythrocytes by Percoll gradients as described previously (A. M. Gero, H. V. Scott, W. J. O'Sullivan and R. I. Christopherson, Mol. Biochem. Parasitol. 34, 87-89 (1989)). Trophozoites were incubated at 37° C. for 2 hours with each compound to be tested. Compounds were incubated with both whole infected cells as whole and lyzed uninfected normal erythrocytes to determine:
a) entry to the cell (whether they were transported);
Drug incubation was terminated by centrifugation through silicon oil using the method of Upston and Gero (J. M. Upston and A. M. Gero, Biochem. Biophys. Acta. 1236, 249-258 (1995)). This procedure separated intact trophozoites from extracellular non-transported drug solution.
(§4) The metabolism of nucleosides with potential chemotherapeutic activity was assessed by the analysis of cytoplasmic samples by reverse phase ion-pair high performance liquid chromatography (R. S. Toguzov, Y. V. Tikhonov, A. M. Pimenov, V. Prokudin, Journal of Chromatography, I. Biomedical Appl. 434, 447-453 (1988)). Nucleotides, nucleosides and bases were separated by this HPLC method.
It has been established that transport and uptake in parasite invaded cells is different from that of normal blood erythrocytes (A. M. Gero & A. M. Wood, In: Pyrine & Pyrimidine Methabolism in Man VII, Part A. (R. A. Harkness et al., Eds) Plenum Press, NY, 169-172 (1991)). Invasion by the malaria parasite comprises the cell membrane, allowing penetration of unnatural substances of various size and shape, whereas normal cells are very selective in uptake. It was shown that L-nucleosides and their derivatives easily penetrate invaded cells, while they have a very slow rate of uptake into normal cells, if they enter at all. In order to obtain preliminary data on transport, uptake and metabolism, the HPLC method was used to analyze the following 10 Lipitek compounds: L-101, L-103, L-109, L-111, L-117, L-133, L-138, GCl 1007, GCl 1027, GCl 1069.
(§5) These compounds were chosen for the identification of possible metabolites. In this experiment the compounds were incubated with both whole infected cells, and with whole and lysed uninfected cells, followed by the separation of unreacted compound and HPLC analysis.

[6] = test system: P. falciparum infected erythrocytes (trophozoites); assay type: in vitro ADME, human erythrocytes infected with Plasmodium falciparum; remark: listed apart in the source
Description: as §2, §3
b) the metabolic effect within the cell (was the compound metabolized);
as §4, §5

[7] = test system: normal erythrocytes and other cell types; conditions: cited from earlier work
[8] = test system: erythrocyte infected with P. falciparum; conditions: cited from earlier work
[9] = test system: human prostate phosphotransferase; conditions: cited from earlier work
[10] = Plasmodium falciparum, 24 h, Table 1, 24 h drug exposure, up to 200 μM, read-out: IC50
[11] = Plasmodium falciparum, Table 2, FUdR linkage position 5', read-out: IC50
[12] = Plasmodium falciparum, Table 3, β-L configuration of the L-nucleoside, read-out: IC50
[13] = Plasmodium falciparum, Table 4, Phosphate "bridge" O=P--O, read-out: IC50

Row | Molecule | activity ranking in words, strain D6 [1] | IC50 [2, 10] [µM] | IC50 [2, 11] [µM] | activity ranking in words, strain W2 [3] | entry to the infected cell [5] | In vitro activity against P. falciparum, in words [2] | toxicity against P. falciparum, in words [2] | other results
1 | O=c1[nH]c(=O)n([C@@H]2C[C@@H](OP(=O)(O)OC[C@H]3O[C@@H](n4cc(F)c(=O)[nH]c4=O)C[C@@H]3O)[C@H](CO)O2)cc1F [L-110, 3'-O-(β-D-5-fluoro-2'-deoxyuridinyl)-β-L-5-fluoro-2'-deoxyuridine] | most active | 20 | 20 | most active |  |  |  | IC50 [2, 12]: 20 µM
2 | α-L-FUdR 3'-5'SATE [B07] |  |  |  |  |  |  |  | Solubility (printed in the IC50/ID50 column) [4]: Solubility problem
3 | Nc1ncnc2c1ncn2[C@@H]1C[C@@H](OP(=O)(O)OC[C@H]2O[C@@H](n3cc(F)c(=O)[nH]c3=O)C[C@@H]2O)[C@H](CO)O1 [L-138, β-L-dA, β-D-FUdR] | most active | 5 | 5 | most active | entered the infected cells | most active | toxic against P. falciparum | metabolism by the infected cells [6]: metabolized by the infected cells; IC50 [2, 12]: 5 µM; IC50 [2, 13]: 5 µM; IC50 ([2]; Plasmodium falciparum, Table 4, Phosphorothioate "bridge" S=P--O, read-out: IC50): 100 µM
4 | O=c1[nH]c(=O)n([C@H]2C[C@H](OP(=O)(O)OC[C@H]3O[C@@H](n4cc(F)c(=O)[nH]c4=O)C[C@@H]3O)[C@@H](CO)O2)cc1F [L-101, [β-D]2 -FUdR] | most active | 15 | 15 | most active | entered the infected cells | most active | toxic against P. falciparum | metabolism by the infected cells [6]: metabolized by the infected cells; IC50 [2, 13]: 15 µM
5 | β-L-dG, β-D-FUdR [L-133] | most active |  |  | most active | entered the infected cells | most active | toxic against P. falciparum | metabolism by the infected cells [6]: metabolized by the infected cells; IC50 ([2]; Table 1, 24 h drug exposure, up to 200 μM, read-out: IC50): 14 µM; IC50 ([2]; Table 2, FUdR linkage position 5', read-out: IC50): 14 µM
6 | O=c1[nH]c(=O)n([C@@H]2C[C@@H](O)[C@H](COP(=O)(O)O[C@@H]3C[C@@H](n4cc(F)c(=O)[nH]c4=O)O[C@H]3CO)O2)cc1F [L-109, 3'-O-(β-L-5-fluoro-2'-deoxyuridinyl)-β-L-5-fluoro-2'-deoxyuridine] |  | > 200 |  |  | could not enter the infected cell | did not exhibit any activity | not toxic | 
7 | O=c1ccn([C@@H]2C[C@@H](OP(=O)(O)OC[C@H]3O[C@@H](n4cc(F)c(=O)[nH]c4=O)C[C@@H]3O)[C@H](CO)O2)c(=O)[nH]1 [L-117] | most active | 35 |  | most active | entered the infected cells |  | toxic against P. falciparum | IC50 [2, 13]: 35 µM
8 | Nc1ncnc2c1ncn2[C@H]1O[C@@H](CO)[C@H](O)[C@@H]1O [GCI 1032, β-L-adenosine] |  |  |  |  |  |  |  | permeability/uptake of normal erythrocytes and other cells [7]: completely impermeable; IC50 ([2]; Plasmodium falciparum, 24 h): > 200 µM; transport into infected erythrocyte [8]: selectively transported into an erythrocyte infected with P. falciparum
9 | O=c1[nH]c(=O)n([C@@H]2OC[C@H](O)[C@@H]2O)cc1F [GCI 1007, α-L-erythrofuranosyl-5-fluorouracil] |  | > 200 |  |  | entered the infected cells |  | toxic against P. falciparum | 
10 | Nc1ccn([C@H]2C[C@@H](OP(=O)(O)OC[C@H]3O[C@@H](n4cc(F)c(=O)[nH]c4=O)C[C@@H]3O)[C@H](CO)O2)c(=O)n1 [L-111, 3'-O-(β-D-5-fluoro-2'-deoxyuridinyl)-α-L-2'-deoxycytidine] |  | 38 | 38 |  | entered the infected cells | most active; also recorded: no obvious difference in the activity | toxic against P. falciparum | IC50 ([2]; Plasmodium falciparum, Table 3, α-L configuration of the L-nucleoside, read-out: IC50): 38 µM
11 | O=c1ccn([C@H]2O[C@@H](CO)[C@H](O)[C@@H]2O)c(=O)[nH]1 [β-L-uridine] |  |  |  |  |  |  |  | phosphorylation at the 5'-position [9]: not phosphorylated at the 5'-position
12 | β-L-FUdR 3'-5'SATE [B05] |  |  |  |  |  |  |  | Solubility (printed in the IC50/ID50 column) [4]: Solubility problem
